Data as given in patent US20120095036A1, “NOVEL SUBSTITUTED INDAZOLE AND AZA-INDAZOLE DERIVATIVES AS GAMMA SECRETASE MODULATORS” (priority 2009, published 2012).

Key:
Aβ42 [1] = assay: Method 2: Aβ42 Alphalisa on supernatant of SKNBE2 cells carrying APP 695 wild type; assay type: cell-based; conditions: SKNBE2 cells APP 695 wild type, overnight
Experimental: (§1) Screening was carried out using SKNBE2 cells carrying the APP 695—wild type, grown in Dulbecco's Modified Eagle's Medium/Nutrient mixture F-12 (DMEM/NUT-mix F-12) (HAM) provided by Invitrogen (cat no. 10371-029) containing 5% Serum/Fe supplemented with 1% non-essential amino acids, 1-glutamine 2 mM, Hepes 15 mM, penicillin 50 U/ml (units/ml) en streptomycin 50 μg/ml. Cells were grown to near confluency.
(§2) The screening was performed using a modification of the assay as described in Citron et al (1997) Nature Medicine 3: 67. Briefly, cells were plated in a 384-well plate at 10^4 cells/well in Ultraculture (Lonza, BE12-725F) supplemented with 1% glutamine (Invitrogen, 25030-024), 1% non-essential amino acid (NEAA), penicillin 50 U/ml en streptomycin 50 μg/ml in the presence of test compound at different test concentrations. The cell/compound mixture was incubated overnight at 37° C., 5% CO2, The next day the media were assayed by two sandwich immuno-assays, for Aβ42 and Aβtotal.
(§3) Aβtotal and Aβ42 concentrations were quantified in the cell supernatant using the Aphalisa technology (Perkin Elmer). Alphalisa is a sandwich assay using biotinylated antibody attached to streptavidin coated donorbeads and antibody conjugated to acceptor beads. In the presence of antigen, the beads come into close proximity. The excitation of the donor beads provokes the release of singlet oxygen molecules that trigger a cascade of energy transfer in the acceptor beads, resulting in light emission. To quantify the amount of Aβ42 in the cell supernatant, monoclonal antibody specific to the C-terminus of Aβ42 (JRF/cAβ42/26) was coupled to the receptor beads and biotinylated antibody specific to the N-terminus of AB (JRF/AβN/25) was used to react with the donor beads. To quantify the amount of Aβtotal in the cell supernatant, monoclonal antibody specific to the N-terminus of AB (JRF/AβN/25) was coupled to the receptor beads and biotinylated antibody specific to the mid region of Aβ (biotinylated 4G8) was used to react with the donor beads.
(§4) To obtain the values reported in Table 3b, the data were calculated as percentage of the maximum amount of amyloid Beta 42 measured in the absence of the test compound. The sigmoidal dose response curves were analyzed using non-linear regression analysis with percentage of the control plotted against the log concentration of the compound. A 4-parameter equation was used to determine the IC50.

Aβtotal [2] = assay: Method 2: Aβtotal Alphalisa on supernatant of SKNBE2 cells carrying APP 695 wild type; assay type: cell-based; conditions: SKNBE2 cells APP 695 wild type, overnight
Experimental: as §1, §2, §3, §4

Aβ42 [3] = assay: Method 1: Aβ42 sandwich ELISA on media of SKNBE2 cells carrying APP 695 wild type (γ-secretase-modulating activity); assay type: cell-based; conditions: SKNBE2 cells APP 695 wild type, 18 hours
Experimental: as §1, with “Gibco” for “Invitrogen”, “31330-38)” for “10371-029)”, “acids.” for “acids, 1-glutamine 2 mM, Hepes 15 mM, penicillin 50 U/ml (units/ml) en streptomycin 50 μg/ml.”
(§5) The screening was performed using the assay as described in Citron et al (1997) Nature Medicine 3: 67. Briefly, cells were plated in a 96-well plate at about 10^5 cells/ml one day prior to addition of compounds. Compounds were added to the cells in Ultraculture (Lonza, BE12-725F) supplemented with 1% glutamine (Invitrogen, 25030-024) for 18 hours. The media were assayed by two sandwich ELISAs, for Aβ42 and Aβtotal. Toxicity of the compounds was assayed by WST-1 cell proliferation reagent (Roche, 1 644 807) according to the manufacturer's protocol.
To quantify the amount of Aβ42 in the cell supernatant, commercially available Enzyme-Linked-Immunosorbent-Assay (ELISA) kits were used (Innotest® β-Amyloid(1-42), Innogenetics N.V., Ghent, Belgium). The Aβ42 ELISA was performed essentially according to the manufacturer's protocol. Briefly, the standards (dilutions of synthetic A131-42) were prepared in polypropylene Eppendorf with final concentrations of 8000 down to […] (½ dilution step). Samples, standards and blanks (100 μl) were added to the anti-Aβ42-coated plate supplied with the kit (the capture antibody selectively recognizes the C-terminal end of the antigen). The plate was allowed to incubate 3 h at 25° C. in order to allow formation of the antibody-amyloid complex. Following this incubation and subsequent wash steps a selective anti-A13-antibody conjugate (biotinylated 3D6) was added and incubated for a minimum of 1 hour in order to allow formation of the antibody-Amyloid-antibody-complex. After incubation and appropriate wash steps, a Streptavidine-Peroxidase-Conjugate was added, followed 30 minutes later by an addition of 3,3′,5,5′-tetramethylbenzidine (TMB)/peroxide mixture, resulting in the conversion of the substrate into a coloured product. This reaction was stopped by the addition of sulfuric acid (0.9 N) and the colour intensity was measured by means of photometry with an ELISA-reader with a 450 nm filter.
(§6) To obtain the values reported in Table 3a, the sigmoidal dose response curves were analysed by computerised curve-fitting, with percent of inhibition plotted against compound concentration. A 4-parameter equation (model 205) in XLfit was used to determine the IC50. The top and the bottom of the curve were fixed to 100 and 0, respectively, and the hill slope was fixed to 1. The IC50 represents the concentration of a compound that is required for inhibiting a biological effect by 50% (Here, it is the concentration where Aβ peptide level is reduced by 50%).

Aβtotal [4] = assay: Method 1: Aβtotal sandwich ELISA on media of SKNBE2 cells carrying APP 695 wild type; assay type: cell-based; conditions: SKNBE2 cells APP 695 wild type, 18 hours
Experimental: as §1, with “Gibco” for “Invitrogen”, “31330-38)” for “10371-029)”, “acids.” for “acids, 1-glutamine 2 mM, Hepes 15 mM, penicillin 50 U/ml (units/ml) en streptomycin 50 μg/ml.”
as §5
To quantify the amount of Aβtotal in the cell supernatant, samples and standards were added to a 6E10-coated plate. The plate was allowed to incubate overnight at 4° C. in order to allow formation of the antibody-amyloid complex. Following this incubation and subsequent wash steps a selective anti-AB-antibody conjugate (biotinylated 4G8) was added and incubated for a minimum of 1 hour in order to allow formation of the antibody-Amyloid-antibody-complex. After incubation and appropriate wash steps, a Streptavidine-Peroxidase-Conjugate was added, followed 30 minutes later by an addition of Quanta Blu fluorogenic peroxidase substrate according to the manufacturer's instructions (Pierce Corp., Rockford, Il).
as §6

| IC50 (Aβ42 [1]; Homo sapiens) [nM] | IC50 (Aβtotal [2]; Homo sapiens) [µM] | melting point [°C] | IC50 (Aβ42 [3]) [nM] | IC50 (Aβtotal [4]) [nM] | IC50 (Aβ42 [1]) [nM] | IC50 (Aβtotal [2]) [µM] | IC50 (Aβ42 [3]; Homo sapiens) [nM] | IC50 (Aβtotal [4]; Homo sapiens) [nM] | Compound |
| --- | --- | --- | --- | --- | --- | --- | --- | --- | --- |
| > 3000 | > 3 | 203.4 |  |  |  |  |  |  | COc1cc(Nc2nc(C)cc3cn(CC(F)(F)F)nc23)ccc1-n1cnc(C)n1 [Compound 21, N-[3-methoxy-4-(3-methyl-1H-1,2,4-triazol-1-yl)phenyl]-5-methyl-2-(2,2,2-trifluoroethyl)-2H-pyrazolo[3,4-c]pyridin-7-amine] |
| > 3000 | > 3 | 168.7 |  |  |  |  |  |  | Cc1ncc(-c2ccc(Nc3cccc4cn(C)nc34)cc2)o1 [Compound 24, 2-methyl-N-[4-(2-methyl-5-oxazolyl)phenyl]-2H-indazol-7-amine] |
|  |  |  | 2660 | > 3000 | > 3000 | > 3 |  |  | COc1cc(Nc2cccc3cn(CC4CC4)nc23)ccc1-c1ocnc1C [Compound 37, 2-(cyclopropylmethyl)-N-[3-methoxy-4-(4-methyl-5-oxazolyl)phenyl]-2H-indazol-7-amine .2HCl] |
| 59 | 6.03 |  |  |  |  |  | 67 | > 3000 | CCOc1cc(C)c(-n2nc3c(Nc4ccc(-n5cnc(C)n5)c(OC)c4)cccc3c2C)cc1C(C)C [Compound 20, 2-[4-ethoxy-2-methyl-5-(1-methylethyl)phenyl]-N-[3-methoxy-4-(3-methyl-1H-1,2,4-triazol-1-yl)phenyl]-3-methyl-2H-indazol-7-amine] |
| 166 | > 10 | 139.9 |  |  |  |  |  |  | Cc1ncc(-c2ccc(Nc3cccc4c(C)n(-c5ccc(F)cc5F)nc34)cc2)o1 [Compound 33, 2-(2,4-difluorophenyl)-3-methyl-N-[4-(2-methyl-5-oxazolyl)phenyl]-2H-indazol-7-amine] |
|  |  |  | 283 | > 3000 | 79 | > 10 |  |  | COc1cc(Nc2cccc3cn(CC4CC4)nc23)ccc1-n1cnc(C)c1 [Compound 13, 2-(cyclopropylmethyl)-N-[3-methoxy-4-(4-methyl-1H-imidazol-1-yl)phenyl]-2H-indazol-7-amine .2HCl] |
| > 3000 | > 3 | 103.9 |  |  |  |  |  |  | CC(C)c1ncc(-c2ccc(Nc3cccc4cn(CC(F)(F)F)nc34)cc2)o1 [Compound 48, N-[4-[2-(1-methylethyl)-5-oxazolyl]phenyl]-2-(2,2,2-trifluoroethyl)-2H-indazol-7-amine] |
| 234 | 5.25 | 211.5 |  |  |  |  |  |  | COc1cc(Nc2cc(C)nc3cn(CC(F)(F)F)nc23)ccc1-c1cnc(C)o1 [Compound 51, N-[3-methoxy-4-(2-methyl-5-oxazolyl)phenyl]-5-methyl-2-(2,2,2-trifluoroethyl)-2H-pyrazolo[4,3-b]pyridin-7-amine] |
| 339 | > 10 | 144.9 |  |  |  |  |  |  | Cc1cn(-c2ccc(Nc3cccc4cn(CC(F)(F)F)nc34)cc2F)cn1 [Compound 52, N-[3-fluoro-4-(4-methyl-1H-imidazol-1-yl)phenyl]-2-(2,2,2-trifluoroethyl)-2H-indazol-7-amine] |
|  |  |  | 29 | > 3000 | 30 | > 10 |  |  | COc1cccc(-n2nc3c(Nc4ccc(-c5ocnc5C)c(OC)c4)cccc3c2C)c1 [Compound 39, N-[3-methoxy-4-(4-methyl-5-oxazolyl)phenyl]-2-(3-methoxyphenyl)-3-methyl-2H-indazol-7-amine .1.9HCl] |
| 107 | 1.66 | 172.5 |  |  |  |  |  |  | COc1nc(Nc2cc(C(C)C)nc3cn(CC(F)(F)F)nc23)ccc1-n1cnc(C)c1 [Compound 57, N-[6-methoxy-5-(4-methyl-1H-imidazol-1-yl)-2-pyridinyl]-5-(1-methylethyl)-2-(2,2,2-trifluoroethyl)-2H-pyrazolo[4,3-b]pyridin-7-amine] |
| 129 | > 10 |  |  |  |  |  | 127 | > 3000 | CCOc1cc(C)c(-n2nc3c(Nc4ccc(-c5cnc(C)o5)cc4)cccc3c2C)cc1C(C)C [Compound 30, 2-[4-ethoxy-2-methyl-5-(1-methylethyl)phenyl]-3-methyl-N-[4-(2-methyl-5-oxazolyl)phenyl]-2H-indazol-7-amine] |
|  |  |  | 1740 | > 150000 | 1260 | 49 |  |  | Cc1ncc(-c2ccc(Nc3cccc4cn(CC5CC5)nc34)cc2)o1 [Compound 25, 2-(cyclopropylmethyl)-N-[4-(2-methyl-5-oxazolyl)phenyl]-2H-indazol-7-amine .2HCl] |
|  |  |  | 77 | > 3000 | < 3000 | > 3 |  |  | CCCCn1cc2cc(C#N)cc(Nc3ccc(-n4cnc(C)c4)c(OC)c3)c2n1 [Compound 11, 2-butyl-7-[[3-methoxy-4-(4-methyl-1H-imidazol-1-yl)phenyl]amino]-2H-indazole-5-carbonitrile .2HCl] |
| 66 | 4.27 |  |  |  |  |  | 199 | > 3000 | Cc1ncoc1-c1ccc(Nc2cccc3c(C)n(-c4ccc(F)cc4)nc23)cn1 [Compound 46, 2-(4-fluorophenyl)-3-methyl-N-[6-(4-methyl-5-oxazolyl)-3-pyridinyl]-2H-indazol-7-amine] |
|  |  |  | 126 | > 3000 | 37 | > 10 |  |  | Cc1ncc(-c2ccc(Nc3cccc4c(C)n(-c5ccc(F)cc5)nc34)cc2)o1 [Compound 31, 2-(4-fluorophenyl)-3-methyl-N-[4-(2-methyl-5-oxazolyl)phenyl]-2H-indazol-7-amine .1.5HCl] |
| > 3000 |  | 224.8 |  |  |  |  |  |  | Cc1ncc(-c2ccc(Nc3cccc4cn(C5CCOCC5)nc34)cc2)o1 [Compound 28, N-[4-(2-methyl-5-oxazolyl)phenyl]-2-(tetrahydro-2H-pyran-4-yl)-2H-indazol-7-amine] |
|  |  |  | 99 | > 3000 | < 3000 | > 3 |  |  | CCCCn1nc2c(Nc3ccc(-n4cnc(C)c4)c(OC)c3)cccc2c1C [Compound 10, 2-butyl-N-[3-methoxy-4-(4-methyl-1H-imidazol-1-yl)phenyl]-3-methyl-2H-indazol-7-amine .2HCl] |
